Key:
Test in all cases: relative viability (nuclei count vs DMSO), 5 days (fraction); higher = more cells survive
Carfilzomib + Vorinostat = compound: CC(C)C[C@H](NC(=O)[C@H](CCc1ccccc1)NC(=O)CN1CCOCC1)C(=O)N[C@@H](Cc1ccccc1)C(=O)N[C@@H](CC(C)C)C(=O)[C@@]1(C)CO1 [Carfilzomib] + O=C(CCCCCCC(=O)Nc1ccccc1)NO [Vorinostat] (partner 1 µM)
How it was run: (§1)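 Cells from lung cancer lines were seeded into 1536-well plates and, one day later, dosed by pin tool. Treatments were either a single drug or a fixed dose of an anchor drug with five library-drug doses (not always all listed) in √10 steps. After 5 days, nuclei were stained in a one-step fixation (final 0.05% Triton X-100, 1% formaldehyde, 1 ug/ml Hoechst) and counted on 4× images, and relative viability is the treated-to-vehicle nuclei ratio, as the median of duplicate plates.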

Olaparib + Trametinib = compound: O=C(c1cc(Cc2n[nH]c(=O)c3ccccc23)ccc1F)N1CCN(C(=O)C2CC2)CC1 [Olaparib] + CC(=O)Nc1cccc(-n2c(=O)n(C3CC3)c(=O)c3c(Nc4ccc(I)cc4F)n(C)c(=O)c(C)c32)c1 [Trametinib] (partner 0.02 µM)
How it was run: as §1

Carfilzomib + Bortezomib = compound: CC(C)C[C@H](NC(=O)[C@H](CCc1ccccc1)NC(=O)CN1CCOCC1)C(=O)N[C@@H](Cc1ccccc1)C(=O)N[C@@H](CC(C)C)C(=O)[C@@]1(C)CO1 [Carfilzomib] + CC(C)C[C@H](NC(=O)[C@H](Cc1ccccc1)NC(=O)c1cnccn1)B(O)O [Bortezomib] (partner 0.002 µM)
How it was run: as §1

Olaparib + Tozasertib = compound: O=C(c1cc(Cc2n[nH]c(=O)c3ccccc23)ccc1F)N1CCN(C(=O)C2CC2)CC1 [Olaparib] + Cc1cc(Nc2cc(N3CCN(C)CC3)nc(Sc3ccc(NC(=O)C4CC4)cc3)n2)n[nH]1 [Tozasertib] (partner 0.1 µM)
How it was run: as §1

| Cell Line | relative viability (Carfilzomib + Vorinostat; first compound 0.001 µM) | relative viability (Carfilzomib + Vorinostat; first compound 0.003162 µM) | relative viability (Carfilzomib + Vorinostat; first compound 0.01 µM) | relative viability (Carfilzomib + Vorinostat; first compound 0.03162 µM) | relative viability (Carfilzomib + Vorinostat; first compound 0.1 µM) | relative viability (Olaparib + Trametinib; first compound 0.08 µM) | relative viability (Olaparib + Trametinib; first compound 0.253 µM) | relative viability (Olaparib + Trametinib; first compound 2.53 µM) | relative viability (Olaparib + Trametinib; first compound 8 µM) | relative viability (Carfilzomib + Bortezomib; first compound 0.001 µM) | relative viability (Carfilzomib + Bortezomib; first compound 0.003162 µM) | relative viability (Carfilzomib + Bortezomib; first compound 0.01 µM) | relative viability (Carfilzomib + Bortezomib; first compound 0.03162 µM) | relative viability (Carfilzomib + Bortezomib; first compound 0.1 µM) | relative viability (Olaparib + Tozasertib; first compound 0.08 µM) | relative viability (Olaparib + Tozasertib; first compound 0.253 µM) | relative viability (Olaparib + Tozasertib; first compound 2.53 µM) | relative viability (Olaparib + Tozasertib; first compound 8 µM) |
| --- | --- | --- | --- | --- | --- | --- | --- | --- | --- | --- | --- | --- | --- | --- | --- | --- | --- | --- |
| NCI-H596 | 0.585 | 0.612 | 0.448 | 0.173 | 0.159 | 0.789 | 0.719 | 0.82 | 0.637 | 0.885 | 0.987 | 0.839 | 0.483 | 0.2 | 0.962 | 0.707 | 0.813 | 0.617 |
| NCI-H647 | 0.69 | 0.483 | 0.137 | 0.0309 | 0.0228 | 0.471 | 0.424 | 0.54 | 0.523 | 0.674 | 0.72 | 0.154 | 0.0243 | 0.0299 | 0.253 | 0.258 | 0.407 | 0.255 |
| NCI-H650 | 0.354 | 0.468 | 0.532 | 0.132 | 0.107 | 0.893 | 0.939 | 0.915 | 0.782 | 0.587 | 0.701 | 0.619 | 0.145 | 0.157 | 0.974 | 0.72 | 0.656 | 0.541 |
| NCI-H661 | 0.821 | 0.861 | 0.808 | 0.553 | 0.215 | 0.602 | 0.5 | 0.569 | 0.525 | 0.801 | 0.965 | 0.842 | 0.384 | 0.214 | 0.346 | 0.355 | 0.34 | 0.343 |
| NCI-H727 | 0.999 | 1.14 | 1.45 | 1.01 | 0.651 | 0.415 | 0.363 | 0.37 | 0.349 | 0.72 | 0.77 | 0.795 | 0.3 | 0.147 | 0.704 | 0.581 | 0.674 | 0.486 |
| NCI-H838 | 0.922 | 0.774 | 0.719 | 0.199 | 0.152 | 0.585 | 0.493 | 0.536 | 0.547 | 0.772 | 0.838 | 0.624 | 0.179 | 0.114 | 0.277 | 0.239 | 0.265 | 0.269 |
| NCI-H1355 | 0.533 | 0.703 | 0.664 | 0.569 | 0.142 | 0.385 | 0.433 | 0.481 | 0.476 | 1.07 | 1.1 | 1.15 | 0.315 | 0.157 | 0.697 | 0.552 | 0.562 | 0.444 |
| NCI-H1437 | 0.834 | 0.895 | 1.14 | 0.435 | 0.206 | 0.535 | 0.469 | 0.503 | 0.504 | 0.473 | 0.5 | 0.437 | 0.176 | 0.13 | 0.424 | 0.393 | 0.394 | 0.379 |
| NCI-H1650 | 0.65 | 0.475 | 0.19 | 0.152 | 0.127 | 0.6 | 0.503 | 0.62 | 0.565 |  | 0.19 | 0.17 | 0.195 | 0.197 | 0.475 | 0.391 | 0.372 | 0.361 |

Reference: the supplement of paper PMC10307832
